This note sets out measurements from patent EP1655298A1, “Novel polymorph forms of candesartan cilexetil” (priority 2004, dated 2006).

What all share (type): physicochemical
The nature of series [1]: Comparable solubility in phosphate buffer / physiologically relevant medium. The following applies: for solubility at 0.5 h: read-out: C30 min; for solubility at 1 h: read-out: C60 min. The method, then: In order to prepare a pharmaceutical composition physical properties were measured.
(§1) Physiologically relevant medium is a phosphate buffer at pH=6.76 + Sodiumtauroholat (2,5 mM) + Lecitin (0,5 mM). Surface area of Form 1 was 2.15 - 2,68 m^2/g whereas the surface area of Form 5 was 7,66 m^2/g (BET - isotherm), the hygroscopity as established by DVS - first cycle at 90 % humidity was 0,23% for Form I and 0,44% for Form 5.

Another series in a line: Hygroscopicity by DVS. The following applies: DVS - first cycle at 90 % humidity. The method, then:
as §1

Series [2] is described as follows: Surface area (BET isotherm). The method, then: as §1

Read-outs that look alike come from different tables or passages of the source.

On to `CCOc1nc2cccc(C(=O)OC(C)OC(=O)OC3CCCCC3)c2n1Cc1ccc(-c2ccccc2-c2nnn[nH]2)cc1` (stereo not drawn) [Form 1, candesartan cilexetil], for which the solubility at 0.5 h in series [1] (aqueous buffer, Phosphate buffer pH=6.76, 30 min) was below 0.2 µg/mL. For the same compound, in series [1] (aqueous buffer, Phosphate buffer pH=6.76, 60 min), the solubility at 1 h was below 0.2 µg/mL. For the same compound, the hygroscopity in the series “Hygroscopicity by DVS” (listed as Form I) is 0,23%.

In the case of `CCOc1nc2cccc(C(=O)OC(C)OC(=O)OC3CCCCC3)c2n1Cc1ccc(-c2ccccc2-c2nnn[nH]2)cc1` (stereo not drawn) [Form 5, candesartan cilexetil], the C30 min in series [1] (Phosphate buffer pH=6.76, 30 min) was below 0.2 µg/mL. Further, the C60 min in series [1] (Phosphate buffer pH=6.76, 60 min) is below 0.2 µg/mL. Also, the solubility at 0.5 h in series [1] (phosphate buffer + taurocholate + lecithin, Physiologically relevant medium: phosphate buffer pH=6.76 + Sodiumtauroholat (2,5 mM) + Lecitin (0,5 mM), 30 min) came out at 37.1 µg/mL. In addition, the solubility at 1 h in series [1] (phosphate buffer + taurocholate + lecithin, Physiologically relevant medium: phosphate buffer pH=6.76 + Sodiumtauroholat (2,5 mM) + Lecitin (0,5 mM), 60 min) came out at 68.5 µg/mL. For the same compound, the Surface area in series [2] is listed as 7,66 m^2/g. For the same compound, the hygroscopity in “Hygroscopicity by DVS” is given as 0,44%.
